Publication PMC7730205, “Different Sensitivity of Control and MICU1- and MICU2-Ablated Trypanosoma cruzi Mitochondrial Calcium Uniporter Complex to Ruthenium-Based Inhibitors” (International Journal of Molecular Sciences, 2020)

Columns and labels:
[1] = tested on: T. cruzi epimastigotes (control, TcMICU1-KO, TcMICU2-KO); test: Mitochondrial membrane potential of digitonin-permeabilized epimastigotes (safranine O); type: cell-based, Trypanosoma cruzi; settings: TcMICU1-KO or TcMICU2-KO cells, succinate
From the text: To determine whether the defect in mitochondrial Ca^2+ uptake in the presence of inhibitors was not secondary to mitochondrial membrane depolarization, we measured the mitochondrial membrane potential (Δψm) of digitonin-permeabilized epimastigotes using safranine O in the presence of succinate as mitochondrial substrate.
Figure 3 Effect of inhibitors on the mitochondrial membrane potential of epimastigotes. Changes in mitochondrial membrane potential (Δψm) of digitonin-permeabilized epimastigotes as detected by changes in safranine O fluorescence in control (a), TcMICU1-KO (b), and TcMICU2-KO (c) epimastigotes in the absence or presence of inhibitors. Cells (5 × 10^7) were added to the reaction buffer (2 mL) containing 0.2% BSA, 5 mM succinate, 50 μM EGTA and 5 μM safranine O. The reaction was started with 50 μM digitonin (DIG) in the presence or absence of the inhibitor, and 250 μM ADP, 1.5 μM carboxyatractyloside (CAT), 50 μM CaCl2 (Ca^2+), 200 μM EGTA, and 4 μM FCCP were added when indicated. A decrease in fluorescence after permeabilization with digitonin indicated the accumulation of the dye in energized mitochondria. The addition of ADP produced a small dissipation of membrane potential, indicating ADP phosphorylation. Δψm returned to its initial level after the addition of the adenine nucleotide translocator inhibitor CAT. The addition of FCCP collapsed the membrane potential. (d) Changes in safranine O fluorescence after digitonin addition (between 30 and 60 s) in control (C), TcMICU1-KO and TcMICU2-KO epimastigotes. […] Changes in safranine O fluorescence in control (C) (e), TcMICU1-KO (1-KO) (f), and TcMICU2-KO (2-KO) (g) epimastigotes after addition of ADP from three experiments like that shown in panels (a–c).
Estimation of mitochondrial membrane potential in situ was done spectrofluorometrically using the indicator dye safranine O, as described previously. […] Fluorescence changes were monitored using the Hitachi F-7000 spectrofluorometer (excitation of 495 nm and emission of 586 nm).

[2] = tested on: T. cruzi epimastigotes; test: Cellular respiration of epimastigotes (high-resolution respirometry); type: cell-based, Trypanosoma cruzi
Method: Figure 4 Effect of Ru265 on Trypanosoma cruzi. (a) Effect of Ru265 on epimastigote growth. Growth of control epimastigotes in LIT medium in the presence of 1 μM, 5 μM, and 10 μM Ru265. (b) Effect of Ru265 on trypomastigote attachment. Trypomastigotes were pretreated for 30 min with 1 μM antimycin A (AA) or 10 μM Ru265 and added to glutaraldehyde-fixed Vero cells. After 1 h of incubation at 37 °C, the cells were washed, and the number of attached trypomastigotes was counted. […] (c) Effect of Ru265 on trypomastigotes infection. Trypomastigotes were pretreated for 30 min with 1 μM antimycin A or 10 μM Ru265 and added to Vero cells. After 4 h of incubation at 37 °C, the cells were washed, and the number of intracellular parasites was counted. […] (f) Routine respiration (initial oxygen flux values), leak respiration after the addition of 0.5 µg/mL of oligomycin A, and electron transfer system (ETS) capacity after the sequential additions of FCCP (0.2 μM each) were measured for each condition. […] (g) Representative experiment showing mitochondrial Ca^2+ uptake by intact epimastigotes in relative fluorescence units (RFU). […] (h) Changes in fluorescence (before and after ionomycin addition) from three experiments like that shown in panel (g). […]

N.N.N.N.N.N.N.N.[Cl][Ru+3].[N-]=[Ru][Cl] [Ru265]
Effect on mitochondrial membrane potential (Δψm) and response to ADP [1]: did not significantly affect
Uncoupled respiratory control rate (state 3u / rate with oligomycin) ([2]; 10 µM Ru265, n = 3): 1.70 ± 0.04
Effect on O2 consumption level ([2]; control epimastigotes, 10 µM Ru265, compared with parasites without inhibitor): did not affect O2 consumption level
